Results on twelve molecules are retold here after patent US20240270740A1, “INHIBITORS OF CYCLIC GMP-AMP SYNTHASE AND USES THEREOF” (Ventus Therapeutics U.S., Inc., priority 2022, published 2024).

A value given as a limit tells only on which side of the number the result lay.

The target in experiment [1] is T1, hcGAS (Homo sapiens, UniProt Q8N884). Nature of the experiment: hcGAS Kinase-Glo assay (ATP depletion). Particulars: for IC50: 40 nM hcGAS, 100 μM ATP, 100 μM GTP, 25 nM dsDNA, 3 h incubation. The class given is biochemical. The essentials: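 Human cGAS activity measured indirectly as ATP depletion by Kinase-Glo luminescence, following the Lama et al. method with modified conditions. Output is IC50, binned into potency categories.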

Experiment [2] concerns the target T1, hcGAS. Description: hcGAS LCMS assay (direct measurement of cGAMP production). The class given is biochemical. The note with it: for IC50: 0.5 nM hcGAS, 100 μM ATP, 100 μM GTP, 25 nM dsDNA, 4 h incubation. In outline:
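Direct LC/MS readout of cGAMP formed: 4-h enzyme–substrate incubation with compound, stopped by acetonitrile/water quench carrying isotope-labelled cGAMP (0.15 mM) as standard. Potency reported as IC50 ranges.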

Where [3] appears, read: compared with Compound 103 (without —CH2OCH3).

T1 sequence (Q8N884 whole entry): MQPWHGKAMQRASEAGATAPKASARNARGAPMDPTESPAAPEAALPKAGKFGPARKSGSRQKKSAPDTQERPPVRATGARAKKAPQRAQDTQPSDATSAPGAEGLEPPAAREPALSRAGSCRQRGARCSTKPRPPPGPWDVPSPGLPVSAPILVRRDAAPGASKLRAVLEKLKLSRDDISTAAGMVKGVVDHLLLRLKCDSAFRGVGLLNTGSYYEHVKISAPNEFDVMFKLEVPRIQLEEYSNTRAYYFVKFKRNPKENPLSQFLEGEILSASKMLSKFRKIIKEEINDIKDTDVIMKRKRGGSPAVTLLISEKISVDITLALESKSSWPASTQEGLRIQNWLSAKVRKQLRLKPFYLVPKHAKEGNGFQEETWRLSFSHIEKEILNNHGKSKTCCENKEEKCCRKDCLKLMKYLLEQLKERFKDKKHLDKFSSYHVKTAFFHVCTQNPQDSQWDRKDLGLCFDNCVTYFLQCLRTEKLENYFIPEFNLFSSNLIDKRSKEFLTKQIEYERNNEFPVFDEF

One may read the IC50 as the concentration that gives 50% inhibition. A high value points to a need for much substance. Take `COCC(C)(C)Nc1cc(C(=O)Nc2nnc(-n3nccc3C)s2)oc(=O)c1OC` [Compound 76, 3-methoxy-4-((1-methoxy-2-methylpropan-2-yl)amino)-N-(5-(5-methyl-1H-pyrazol-1-yl)-1,3,4-thiadiazol-2-yl)-2-oxo-2H-pyran-6-carboxamide]: the IC50 against hcGAS [1] was in the range of 10 to 30 nM; against hcGAS [2], 5 to 20 nM.
With `COc1c(N[C@@H]2CC[C@H]2OC)cc(C(=O)Nc2nnc(-n3nccc3C)s2)oc1=O` (racemic) [Rac-36, 3-methoxy-4-(((1R,2R)-2-methoxycyclobutyl)amino)-N-(5-(5-methyl-1H-pyrazol-1-yl)-1,3,4-thiadiazol-2-yl)-2-oxo-2H-pyran-6-carboxamide], the IC50 against hcGAS [1] was in the range of 10 to 30 nM; against hcGAS [2] it was 5 to 20 nM.
Taken in the same sequence, the figures for `COc1c(NC(C)C)cc(C(=O)Nc2nnc(-c3c(Cl)ccn3C)s2)oc1=O` [Compound 131, N-(5-(3-chloro-1-methyl-1H-pyrrol-2-yl)-1,3,4-thiadiazol-2-yl)-4-(isopropylamino)-3-methoxy-2-oxo-2H-pyran-6-carboxamide] were 10 to 30 nM and 5 to 20 nM.
Taken in the same sequence, the figures for `COc1c(N2CC[C@@H](S(C)(=O)=O)C2)cc(C(=O)Nc2nnc(-n3nccc3C)s2)oc1=O` [Compound 8, (R)-3-methoxy-N-(5-(5-methyl-1H-pyrazol-1-yl)-1,3,4-thiadiazol-2-yl)-4-(3-(methylsulfonyl)pyrrolidin-1-yl)-2-oxo-2H-pyran-6-carboxamide] were 10 to 30 nM and 5 to 20 nM.
Taken in the same sequence, the figures for `COC[C@@H](C)Nc1cc(C(=O)Nc2nnc(-n3nccc3C)s2)oc(=O)c1OC` [Compound 121, (R)-3-methoxy-4-((1-methoxypropan-2-yl)amino)-N-(5-(5-methyl-1H-pyrazol-1-yl)-1,3,4-thiadiazol-2-yl)-2-oxo-2H-pyran-6-carboxamide] were 10 to 30 nM and 5 to 20 nM.
`COC[C@H]1CCCN1c1cc(C(=O)Nc2nnc(-n3nccc3C)s2)oc(=O)c1OC` [Compound 38, (R)-3-methoxy-4-(2-(methoxymethyl)pyrrolidin-1-yl)-N-(5-(5-methyl-1H-pyrazol-1-yl)-1,3,4-thiadiazol-2-yl)-2-oxo-2H-pyran-6-carboxamide]: the IC50 on hcGAS [1] is 10 to 30 nM; at hcGAS [2] it was 5 to 20 nM.
On to `COc1c(N[C@@H]2CCC[C@@H]2O)cc(C(=O)Nc2nnc(-n3nccc3C)s2)oc1=O` (racemic) [Rac-23, 4-(((cis)-2-hydroxycyclopentyl)amino)-3-methoxy-N-(5-(5-methyl-1H-pyrazol-1-yl)-1,3,4-thiadiazol-2-yl)-2-oxo-2H-pyran-6-carboxamide], for which the IC50 against hcGAS [1] is 10 to 30 nM; against hcGAS [2], less than 5 nM.
Taken in the same sequence, the figures for `COc1c(NCc2ccccc2)cc(C(=O)Nc2nnc(-n3nccc3C)s2)oc1=O` [Compound 103, 4-(benzylamino)-3-methoxy-N-(5-(5-methyl-1H-pyrazol-1-yl)-1,3,4-thiadiazol-2-yl)-2-oxo-2H-pyran-6-carboxamide] were 30 to 100 nM and 5 to 20 nM.
Regarding “3-methoxy-4-(((1R,2S)-2-methoxycyclobutyl)amino)-N-(5-(5-methyl-1H-pyrazol-1-yl)-1,3,4-thiadiazol-2-yl)-2-oxo-2H-pyran-6-carboxamide [Rac-67]”, the IC50 at hcGAS [1] fell in the range of 10 to 30 nM; at hcGAS [2], 5 to 20 nM.
Taken in the same sequence, the figures for `COc1c(NC[C@H](C)OC)cc(C(=O)Nc2nnc(-n3nccc3C)s2)oc1=O` [Compound 187, (S)-3-methoxy-4-((2-methoxypropyl)amino)-N-(5-(5-methyl-1H-pyrazol-1-yl)-1,3,4-thiadiazol-2-yl)-2-oxo-2H-pyran-6-carboxamide] were 10 to 30 nM and 5 to 20 nM.
Turning to `COC[C@H](Nc1cc(C(=O)Nc2nnc(-n3nccc3C)s2)oc(=O)c1OC)c1ccccc1` [Compound 114, (R)-3-methoxy-4-((2-methoxy-1-phenylethyl)amino)-N-(5-(5-methyl-1H-pyrazol-1-yl)-1,3,4-thiadiazol-2-yl)-2-oxo-2H-pyran-6-carboxamide], the results for the IC50 at hcGAS [1] and against hcGAS [2] were less than 10 nM and less than 5 nM, respectively. Besides, the “inhibitory activity in hcGAS Kinase glo assay” value on hcGAS [1] (setting [3]) was “improved inhibitory activity”. Further, the “inhibitory activity in hcGAS LCMS assay” value on hcGAS [2] (setting [3]) is “improved inhibitory activity”.
In the case of `COc1c(NC23CC(C2)C3)cc(C(=O)Nc2nnc(-c3c(Cl)ccn3C)s2)oc1=O` [Compound 41, 4-{bicyclo[1.1.1]pentan-1-ylamino}-N-[5-(3-chloro-1-methylpyrrol-2-yl)-1,3,4-thiadiazol-2-yl]-5-methoxy-6-oxopyran-2-carboxamide], the values for the IC50 against hcGAS [1] and at hcGAS [2] were less than 10 nM and less than 5 nM, respectively.
